Data published in ChEMBL document CHEMBL1201862, “PubChem BioAssay data set” (2004).
Active and inactive are the calls of the source.

Key:
Large T antigen = Large T antigen (Simian virus 40, UniProt P03070); assay type: functional, Betapolyomavirus macacae;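 also: Confirmatory-stage PubChem screen for compounds that inhibit SV40 T antigen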
[1] = target: T1, Replicative DNA helicase DnaB (Mycobacterium tuberculosis, UniProt P9WMR3); assay: DnaB intein splicing inhibitors, dose response, biochemical, cell-free fluorescence (AID 449749); assay type: functional
T1 sequence (P9WMR3 whole entry): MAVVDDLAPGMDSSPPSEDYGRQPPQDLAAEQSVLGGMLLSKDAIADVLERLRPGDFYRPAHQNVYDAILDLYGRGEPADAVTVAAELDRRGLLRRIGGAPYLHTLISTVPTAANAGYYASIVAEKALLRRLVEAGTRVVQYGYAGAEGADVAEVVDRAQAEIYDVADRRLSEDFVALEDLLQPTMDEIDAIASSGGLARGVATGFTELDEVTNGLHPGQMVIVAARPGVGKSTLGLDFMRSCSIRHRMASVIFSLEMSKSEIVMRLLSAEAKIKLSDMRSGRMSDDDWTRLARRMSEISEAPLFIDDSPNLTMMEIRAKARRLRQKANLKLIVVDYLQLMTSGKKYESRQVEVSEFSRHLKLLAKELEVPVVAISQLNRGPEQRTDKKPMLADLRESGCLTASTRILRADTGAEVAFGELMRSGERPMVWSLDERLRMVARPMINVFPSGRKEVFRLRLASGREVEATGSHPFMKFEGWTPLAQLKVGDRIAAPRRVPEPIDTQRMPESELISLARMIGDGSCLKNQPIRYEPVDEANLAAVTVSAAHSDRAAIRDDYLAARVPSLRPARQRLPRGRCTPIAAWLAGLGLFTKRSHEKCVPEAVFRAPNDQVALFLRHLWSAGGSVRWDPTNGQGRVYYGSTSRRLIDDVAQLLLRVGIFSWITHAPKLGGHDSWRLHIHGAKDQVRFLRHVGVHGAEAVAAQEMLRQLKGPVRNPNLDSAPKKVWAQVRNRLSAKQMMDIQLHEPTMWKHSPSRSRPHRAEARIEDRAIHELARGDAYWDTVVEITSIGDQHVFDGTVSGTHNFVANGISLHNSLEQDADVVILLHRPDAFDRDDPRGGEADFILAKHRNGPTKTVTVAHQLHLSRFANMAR

Protein RecA = target: T2, Protein RecA (Mycobacterium tuberculosis, UniProt P9WHJ3); assay: Fluorescence Cell-Free Homogeneous Dose Retest to Identify Inhibitors of RecA-Intein Splicing Activity. [Related pubchem assays (depositor defined):AID2097, AID2223, AID489010, AID492950]; assay type: functional
T2 sequence (P9WHJ3 whole entry): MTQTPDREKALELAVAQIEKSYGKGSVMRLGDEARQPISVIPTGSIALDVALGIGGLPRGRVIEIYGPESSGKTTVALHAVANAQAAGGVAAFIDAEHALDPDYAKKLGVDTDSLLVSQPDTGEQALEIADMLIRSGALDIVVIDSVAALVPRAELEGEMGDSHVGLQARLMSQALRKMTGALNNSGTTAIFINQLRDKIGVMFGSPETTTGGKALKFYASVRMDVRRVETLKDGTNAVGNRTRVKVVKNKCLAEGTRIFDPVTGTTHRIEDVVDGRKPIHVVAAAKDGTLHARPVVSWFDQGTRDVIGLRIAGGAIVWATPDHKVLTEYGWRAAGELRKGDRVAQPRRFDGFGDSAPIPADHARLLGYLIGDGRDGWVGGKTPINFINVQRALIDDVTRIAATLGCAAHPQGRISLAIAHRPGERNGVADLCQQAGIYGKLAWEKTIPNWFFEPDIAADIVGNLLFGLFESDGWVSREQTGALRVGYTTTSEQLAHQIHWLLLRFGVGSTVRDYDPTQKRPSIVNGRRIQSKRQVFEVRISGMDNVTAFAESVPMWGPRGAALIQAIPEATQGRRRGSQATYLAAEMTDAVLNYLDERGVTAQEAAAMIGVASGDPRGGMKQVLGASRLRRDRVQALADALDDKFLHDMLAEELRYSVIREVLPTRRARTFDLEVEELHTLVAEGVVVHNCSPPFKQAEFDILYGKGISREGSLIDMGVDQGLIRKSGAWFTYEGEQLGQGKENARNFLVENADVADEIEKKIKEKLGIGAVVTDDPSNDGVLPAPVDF

[2] = viability of HCT116 lacking mutant beta-catenin – cell-based, human colon tumor, dose response (AID 1045); assay type: functional;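 also: HCT116 colon tumor cells with beta catenin knocked out; cells exposed to compound for 60 hours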
[3] = viability of uninfected HEp-2 cells – cell-based, HTS, cytotoxicity control for RSV inhibitor project, dose response (AID 2410); assay type: functional; conditions: human respiratory syncytial virus
[4] = target: T3, Calpain-2 catalytic subunit (Sus scrofa, UniProt P43367); assay: m-calpain protease blockers, concentration series – biochemical, fluorogenic peptide substrate, dose response (AID 1420); assay type: functional
T3 sequence (P43367 whole entry): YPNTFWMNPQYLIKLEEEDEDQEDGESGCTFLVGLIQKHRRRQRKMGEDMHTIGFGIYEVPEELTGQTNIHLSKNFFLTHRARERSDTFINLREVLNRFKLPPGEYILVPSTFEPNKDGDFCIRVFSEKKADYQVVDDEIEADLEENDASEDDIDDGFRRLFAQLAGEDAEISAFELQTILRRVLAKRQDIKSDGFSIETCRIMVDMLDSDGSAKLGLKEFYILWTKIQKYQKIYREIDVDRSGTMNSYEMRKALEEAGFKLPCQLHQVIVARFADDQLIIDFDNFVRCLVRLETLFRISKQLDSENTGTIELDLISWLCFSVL

[5] = reduction of Shn3 3'UTR-driven luciferase in osteoblasts – cell-based, Clone20 osteoblasts, firefly luciferase, cherry-picked, dose response (AID 624132); assay type: functional;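 also: firefly luciferase luminescence from reporter carrying the Shn3 3'UTR in osteoblasts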
H9c2 = assay: cells; assay type: functional, cell-based; conditions: Rattus norvegicus, H9c2, Myocardium;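 also: confirmatory concentration-response retest of ultra-high-throughput screening hits for modulation of myocardial damage; cell death induced by hydrogen peroxide oxidative stress; compound pretreatment for 60 min then peroxide exposure for 2 h; potency is for protecting the cells against peroxide damage rather than for killing them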
Protein skinhead-1 = target: T4, Protein skinhead-1 (Caenorhabditis elegans, UniProt P34707); assay type: functional
T4 sequence (P34707 whole entry): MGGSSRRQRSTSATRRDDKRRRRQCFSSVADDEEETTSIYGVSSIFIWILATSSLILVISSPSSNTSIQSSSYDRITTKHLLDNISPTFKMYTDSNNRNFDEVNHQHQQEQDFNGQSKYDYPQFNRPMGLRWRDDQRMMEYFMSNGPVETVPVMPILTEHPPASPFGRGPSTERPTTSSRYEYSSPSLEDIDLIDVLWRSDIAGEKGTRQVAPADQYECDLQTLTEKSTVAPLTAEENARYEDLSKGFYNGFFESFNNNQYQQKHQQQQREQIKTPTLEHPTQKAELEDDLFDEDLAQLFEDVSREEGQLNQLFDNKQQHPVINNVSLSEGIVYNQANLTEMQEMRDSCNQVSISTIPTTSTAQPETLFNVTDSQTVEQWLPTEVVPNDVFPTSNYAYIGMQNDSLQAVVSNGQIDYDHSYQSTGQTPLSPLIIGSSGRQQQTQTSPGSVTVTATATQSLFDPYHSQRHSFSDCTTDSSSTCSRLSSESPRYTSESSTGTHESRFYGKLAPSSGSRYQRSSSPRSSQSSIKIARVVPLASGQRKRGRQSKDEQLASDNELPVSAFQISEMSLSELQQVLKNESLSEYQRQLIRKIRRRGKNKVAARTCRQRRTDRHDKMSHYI

[6] = Luminescence Cell-Based Dose Response HTS to Identify Activators of Luciferase Translation or Activity in H4 […] Cells. [Related pubchem assays: 1829 (Project Summary), 1814 (Primary HTS)]; assay type: functional
H4 = assay: Luminescence Cell-Based Dose Response HTS to Identify Activators of 5'UTR Stem-Loop Driven Prion Protein mRNA Translation in H4 Neuroglioblastoma Cells. [Related pubchem assays: 1829 (Project Summary), 1814 (Primary HTS)]; assay type: functional; conditions: Homo sapiens
[7] = fluconazole-exposed Candida albicans growth modulators – fluorescence, retest, confirmation (AID 2467); assay type: functional, cell-based
[8] = NIH-3T3 fibroblast cytotoxicity, dose response, cytotoxicity control, cell-based, fluorescence, Alamar Blue, secondary assay (AID 2327); assay type: functional;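 also: NIH-3T3 mouse fibroblasts cultured with fluconazole at 8 µg/mL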
cells = assay type: functional

Large T antigen, sequence (P03070 whole entry): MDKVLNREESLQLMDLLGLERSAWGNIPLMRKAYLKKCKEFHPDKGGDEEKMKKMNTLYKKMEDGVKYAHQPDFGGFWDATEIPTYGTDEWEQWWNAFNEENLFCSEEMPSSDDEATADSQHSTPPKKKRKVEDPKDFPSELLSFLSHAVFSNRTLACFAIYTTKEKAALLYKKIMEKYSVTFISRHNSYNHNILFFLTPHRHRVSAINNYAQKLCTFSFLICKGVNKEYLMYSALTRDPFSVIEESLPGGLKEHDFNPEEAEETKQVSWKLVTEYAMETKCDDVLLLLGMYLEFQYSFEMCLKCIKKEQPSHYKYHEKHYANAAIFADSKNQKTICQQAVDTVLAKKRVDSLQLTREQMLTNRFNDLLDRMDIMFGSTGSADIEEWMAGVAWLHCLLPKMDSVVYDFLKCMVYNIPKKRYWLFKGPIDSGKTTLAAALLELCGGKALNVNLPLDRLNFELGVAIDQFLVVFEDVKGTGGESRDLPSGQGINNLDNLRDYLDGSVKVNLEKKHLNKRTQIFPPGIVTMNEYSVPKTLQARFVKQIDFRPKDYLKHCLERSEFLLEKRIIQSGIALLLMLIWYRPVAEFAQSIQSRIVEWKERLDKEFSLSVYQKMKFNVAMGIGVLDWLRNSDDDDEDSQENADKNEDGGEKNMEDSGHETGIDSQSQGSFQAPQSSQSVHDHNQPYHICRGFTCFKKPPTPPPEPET

CNC(=O)Oc1ccc2ncccc2c1
IC50 (Large T antigen): > 100 µM (active)

CCOC(=O)c1nnc(-c2cccs2)nc1Oc1ccc(Cl)cc1
AC50 [1]: 24.5 µM (active) | EC50 (Protein RecA): 16.5 µM (active)

COC(=O)C1=C(C)N(c2ccc(F)c(Cl)c2)C(=O)C1
EC50 [2]: 206 µM (active)

Cc1ccc(S(=O)(=O)NCC2CCC(C(=O)NCCCN3CCOCC3)CC2)cc1 (stereo not drawn)
AC50 [1]: > 380 µM (inactive) | EC50 (Protein RecA): > 380 µM (inactive)

CCC(C)c1ccc(NC(=O)Nc2cccnc2)cc1 (stereo not drawn)
CC50 [3]: 22.7 µM (active)

CCOC(=O)N1CCN(c2ccc([N+](=O)[O-])cc2)CC1
CC50 [3]: 26 µM (active) | IC50 [4]: 30.7 µM (not active)

Cc1ccc(C(=O)C(OC(=O)CN2C(=O)c3ccccc3C2=O)c2ccccc2)cc1C (stereo not drawn)
AC50 [1]: 66.8 µM (active) | EC50 (Protein RecA): > 380 µM (inactive)

O=C(O)CN1C(=O)/C(=C\c2cccc(OC(=O)c3ccco3)c2)SC1=S
AC50 [1]: 29.5 µM (active) | EC50 (Protein RecA): 22.6 µM (active)

CCOC(=O)C1CCN(c2cc3c(cc2NC(=O)c2ccccc2Br)n(C)c(=O)n3C)CC1
AC50 [5]: 21.3 µM (active) | IC50 (H9c2): 67.2 µM (inactive)

COc1cc2ccccc2cc1C(=O)Nc1nccs1
IC50 (Protein skinhead-1): 5.97 µM (active) | EC50 [6]: 59.4 µM (active) | EC50 (H4): 22.8 µM (active)

CCCCC(=O)Nc1cccc(-c2csc(-c3ccccc3)n2)c1
CC50 [3]: 23.9 µM (active)

CCCCCCOc1ccc(C(=O)n2cnc(N)n2)cc1
AC50 [1]: 21.6 µM (active) | EC50 (Protein RecA): 1.46 µM (active)

COc1ccc2c(c1)CC/C(=C/c1ccco1)C2=O
IC50 (Protein skinhead-1): 28.9 µM (active)

C=CCn1c(=S)[nH]c2scc(-c3ccco3)c2c1=O
IC50 (Large T antigen): 24.1 µM (active)

CCOc1cc(C=O)cc(N=Nc2cccc([N+](=O)[O-])c2)c1O
EC50 [7]: 4.04 µM (active) | EC50 [8]: > 150 µM (inactive) | IC50 (cells): 7.46 µM (active)

CCC(=O)Nc1cccc(-c2nc3ccc(C)cc3o2)c1
CC50 [3]: 39.4 µM (active)

COc1ccc(Cl)cc1NC(=O)C(C)OC(=O)c1ccc(NS(=O)(=O)c2ccc3[nH]c(O)nc3c2)cc1 (stereo not drawn)
CC50 [3]: 15.8 µM (active)

COc1ccc(N2C(=O)/C(=C/c3ccc([N+](=O)[O-])cc3)C=C2c2ccccc2)cc1
IC50 (Protein skinhead-1): > 100 µM (inactive)

O=S(=O)(c1ccccc1)N1CCC(c2nc(O)c3nnn(Cc4c(F)cccc4Cl)c3n2)CC1
CC50 [3]: 26 µM (active)

CCOc1ccccc1C(=O)Nc1cc2c(cc1N1CCCC1)n(CC)c(=O)n2CC
CC50 [3]: 13.5 µM (active)

O=C(CCl)Nc1cccc(CP(=O)(c2ccccc2)c2ccccc2)c1
AC50 [1]: 93.2 µM (active) | EC50 (Protein RecA): 18.4 µM (active)

CCCCCOc1ccccc1C(=O)NCCC(=O)O
IC50 (Protein skinhead-1): > 100 µM (inactive)

COc1ccc(-c2[nH]nc3c2C(c2ccsc2)C(C#N)=C(N)O3)cc1 (stereo not drawn)
AC50 [1]: 19.2 µM (active) | EC50 (Protein RecA): 13.3 µM (active)

Fc1ccc(OCc2nc(-c3cccs3)no2)cc1
IC50 (Protein skinhead-1): 24.5 µM (active)

O=C1c2ccccc2C(=O)N1CCCCN(C(=O)c1cccc([N+](=O)[O-])c1)c1ccc(Cl)cc1
CC50 [3]: 43.7 µM (active)

Nc1cc(S(=O)(=O)c2ccc(O)c(N)c2)ccc1O
IC50 (Large T antigen): 20.5 µM (active)

Cc1ccccc1-c1noc(-c2cccs2)n1
IC50 (Protein skinhead-1): 7.91 µM (active)

Cc1ccc2ncnc(Nc3cccc([N+](=O)[O-])c3)c2c1
IC50 (Protein skinhead-1): > 100 µM (inactive)

C=CC[C@H](CC(=O)N(CCO)Cc1ccccc1)C(=O)NC[C@H](OC(=O)[C@@H](CC=C)Cc1ccc(F)cc1)c1ccccc1
AC50 [5]: 10.7 µM (active)

CCCC(C(=O)Nc1ccc(S(=O)(=O)N2CCOCC2)cc1)c1ccccc1 (stereo not drawn)
IC50 (Protein skinhead-1): > 100 µM (inactive)

CCC(C(=O)N(C(C)C)C(C)C)c1ccccc1 (stereo not drawn)
IC50 (Protein skinhead-1): > 100 µM (inactive)

O=C(C/C=N\OCc1ccc([N+](=O)[O-])cc1)Nc1ccccc1
IC50 (cells): 16.1 µM (active)

Cc1cc(OC(=O)c2ccccc2)n(CCC#N)n1
AC50 [1]: 8.7 µM (active) | EC50 (Protein RecA): 2.67 µM (active)

Cc1onc(-c2c(Cl)cccc2Cl)c1C(=O)N[C@@H]1C(=O)N2[C@@H]1SC(C)(C)[C@@H]2C(=O)O [DICLOXACILLIN SODIUM]
AC50 [5]: 46.7 µM (active)
